# Experimental data reported in patent US20240246968A1, “SMALL MOLECULE INHIBITORS OF KRAS G12C MUTANT” (Merck Sharp & Dohme LLC, priority 2021, published 2024).
# Columns and labels:
# [1] = target: T1, interaction between recombinant K-Ras4B G12C mutant protein and cRAF RAS-binding domain (cRAF-RBD) (Homo sapiens, UniProt P01116, G12C); test: Inhibitory activity on interaction between KRAS G12C and cRAF (Alpha technology); format: biochemical; conditions: GMPPNP-bound KRAS G12C incubated with compound at 25° C. for 1 hour, then cRAF-RBD; Alpha signal
# T1 construct: made in house; host or cells: E. coli
# Summary of the method: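 GMPPNP-loaded His-tagged KRAS G12C (aa 1-169, E. coli) preincubated with compound 1 h at 25° C in Tris pH 7.5, 100 mM NaCl, 1 mM MgCl2, TCEP, 0.1% Tween 20; cRAF-RBD (aa 50-132) added, 1.5 h RT, Alpha signal read. DMSO = 0%, GDP-bound KRAS = 100% inhibition; IC50 from dose titration fit.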
# [2] = tested on: MIA PaCa-2 cells; test: Growth inhibition activity on KRAS-G12C mutant cell line (MIA PaCa-2), CellTiter-Glo 3D; format: cell-based, human; conditions: Homo sapiens, MIA PaCa-2, 72 h, MIA PaCa-2, 3-day culture with compound
# Summary of the method: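 Cells in RPMI1640 with 10% FBS were seeded in U-bottom plates and cultured 1 day at 37 °C, 5% CO2, then exposed to compound (0.2% DMSO final) for 3 more days. Viability read by CellTiter-Glo 3D luminescence; IC50 from growth inhibition relative to untreated wells.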
# [3] = target: Gppcp-bound recombinant K-Ras4B G12C mutant protein (amino acids 1-169, C51S/C80L/C118S) (Homo sapiens, UniProt P01116, C118S/C51S/C80L/G12C); test: KRASG12C binding assay (LC-MS, compound binding rate); conditions: test compound final concentration 0.5 μM, 25° C., 1 hour
# Summary of the method: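 Gppcp-bound K-Ras4B G12C (1-169; C51S/C80L/C118S), 50 nM in TBS with 0.1 mM TCEP, 0.25 mM MgCl2, 50 μM Gppcp, exposed to compound at 0.5 μM final for 1 h at 25 °C. Quenched with formic acid and analysed by intact-protein ESI LC-MS. Binding rate is the mono-adduct signal over total KRAS signal; graded A (≥80%) to E (<20%).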
SMILES,IC50 [1] [nM],IC50 [2] [nM],binding rate [3]
"Cc1nc2cc(-c3cccn4c(C(=O)c5cc(F)c(NC(=O)/C=C/CNC6CCCOC6)c(F)c5)ccc34)c(C(F)(F)F)cc2n1C (stereo not drawn) [Example 78, (E)-N-(4-(8-(1,2-dimethyl-6-(trifluoromethyl)-1H-benzo[d]imidazol-5-yl)indolizine-3-carbonyl)-2,6-difluorophenyl)-4-((tetrahydro-2H-pyran-3-yl)amino)but-2-enamide]",51,120,A (A binding rate of 80% or more is rated “A”)
"Cc1nc2cc(-c3cccn4c(C(=O)c5cc(F)c(NC(=O)/C=C/CNC6CC7CCC(C6)O7)c(F)c5)ccc34)c(C(F)(F)F)cc2n1C (stereo not drawn) [Example 79, (E)-4-((8-oxabicyclo[3.2.1]octan-3-yl)amino)-N-(4-(8-(1,2-dimethyl-6-(trifluoromethyl)-1H-benzo[d]imidazol-5-yl)indolizine-3-carbonyl)-2,6-difluorophenyl)but-2-enamide]",61,110,A (A binding rate of 80% or more is rated “A”)
"Cc1nc2cc(-c3cccn4c(C(=O)c5cc(F)c(NC(=O)/C=C/CN[C@H]6CC[C@H](F)CC6)c(F)c5)ccc34)c(C(F)(F)F)cc2n1C [Example 80, (E)-N-(4-(8-(1,2-dimethyl-6-(trifluoromethyl)-1H-benzo[d]imidazol-5-yl)indolizine-3-carbonyl)-2,6-difluorophenyl)-4-(((1r,4r)-4-fluorocyclohexyl)amino)but-2-enamide]",59,85,A (A binding rate of 80% or more is rated “A”)
"Cc1cc2c(nc(CC(F)(F)F)n2C)c(Cl)c1-c1cccn2c(C(=O)c3cc(F)c(NC(=O)/C=C/CNC(C)(C)C)c(F)c3)ccc12 [Example 82, (E)-4-(tert-butylamino)-N-(4-(8-(4-chloro-1,6-dimethyl-2-(2,2,2-trifluoroethyl)-1H-benzo[d]imidazol-5-yl)indolizine-3-carbonyl)-2,6-difluorophenyl)but-2-enamide]",96,260,A (A binding rate of 80% or more is rated “A”)
"Cc1nc2cc(-c3cccn4c(C(=O)c5cc(F)c(NC(=O)/C=C/CNC67CCC(F)(CC6)CC7)c(F)c5)ccc34)c(C(F)(F)F)cc2n1C [Example 85, (E)-N-(4-(8-(1,2-dimethyl-6-(trifluoromethyl)-1H-benzo[d]imidazol-5-yl)indolizine-3-carbonyl)-2,6-difluorophenyl)-4-((4-fluorobicyclo[2.2.2]octan-1-yl)amino)but-2-enamide]",45,110,A (A binding rate of 80% or more is rated “A”)
"COCc1nc2c(Cl)c(-c3cccn4c(C(=O)c5cc(F)c(NC(=O)/C=C/CNC(C)(C)C)c(F)c5)ccc34)c(C)cc2n1C [Example 86, (E)-4-(tert-butylamino)-N-(4-(8-(4-chloro-2-(methoxymethyl)-1,6-dimethyl-1H-benzo[d]imidazol-5-yl)indolizine-3-carbonyl)-2,6-difluorophenyl)but-2-enamide]",40,81,A (A binding rate of 80% or more is rated “A”)
"CO[C@H]1CC[C@H](NC/C=C/C(=O)Nc2c(F)cc(C(=O)c3cc(C)c4c(-c5c(C)cc6c(nc(C)n6C)c5Cl)cccn34)cc2F)CC1 [Example 87, (E)-N-(4-(8-(4-chloro-1,2,6-trimethyl-1H-benzo[d]imidazol-5-yl)-1-methylindolizine-3-carbonyl)-2,6-difluorophenyl)-4-(((1r,4r)-4-methoxycyclohexyl)amino)but-2-enamide]",35,140,A (A binding rate of 80% or more is rated “A”)
"CCc1cc(C(=O)c2cc(F)c(NC(=O)/C=C/CN[C@H]3CC[C@H](OC)CC3)c(F)c2)n2cccc(-c3c(C)cc4c(nc(C)n4C)c3Cl)c12 [Example 89, (E)-N-(4-(8-(4-chloro-1,2,6-trimethyl-1H-benzo[d]imidazol-5-yl)-1-ethylindolizine-3-carbonyl)-2,6-difluorophenyl)-4-(((1r,4r)-4-methoxycyclohexyl)amino)but-2-enamide]",22,100,A (A binding rate of 80% or more is rated “A”)
Cc1nc2cc(-c3cccn4c(C(=O)c5cc(F)c(NC(=O)/C=C/CN[C@@H]6CCOC6)c(F)c5)ccc34)c(C(F)(F)F)cc2n1C [Example 91],75,100,A (A binding rate of 80% or more is rated “A”)
"CO[C@H]1CC[C@H](NC/C=C/C(=O)Nc2c(F)cc(C(=O)c3c(C4CC4)nc4c(-c5cc6nc(C)n(C)c6cc5C(F)(F)F)cccn34)cc2F)CC1 [Example 95, (E)-N-(4-(2-cyclopropyl-8-(1,2-dimethyl-6-(trifluoromethyl)-1H-benzo[d]imidazol-5-yl)imidazo[1,2-a]pyridine-3-carbonyl)-2,6-difluorophenyl)-4-(((1r,4r)-4-methoxycyclohexyl)amino)but-2-enamide]",130,280,A (A binding rate of 80% or more is rated “A”)

# Further molecules by falling IC50 [1], results first:
IC50 [1] [nM],IC50 [2] [nM],SMILES,binding rate [3]
91,120,"Cc1nc2cc(-c3cccn4c(C(=O)c5cc(F)c(NC(=O)/C=C/CNC67CCC(F)(CC6)C7)c(F)c5)ccc34)c(C(F)(F)F)cc2n1C [Example 84, (E)-N-(4-(8-(1,2-dimethyl-6-(trifluoromethyl)-1H-benzo[d]imidazol-5-yl)indolizine-3-carbonyl)-2,6-difluorophenyl)-4-((4-fluorobicyclo[2.2.1]heptan-1-yl)amino)but-2-enamide]",A (A binding rate of 80% or more is rated “A”)
80,120,Cc1nc2cc(-c3cccn4c(C(=O)c5cc(F)c(NC(=O)/C=C/CN[C@H]6CCOC6)c(F)c5)ccc34)c(C(F)(F)F)cc2n1C [Example 92],A (A binding rate of 80% or more is rated “A”)
70,71,Cc1nc2cc(-c3cccn4c(C(=O)c5cc(F)c(NC(=O)/C=C/CN[C@H]6CC[C@@H](F)CC6)c(F)c5)ccc34)c(C(F)(F)F)cc2n1C [Example 81],A (A binding rate of 80% or more is rated “A”)
42,71,"Cc1nc2cc(-c3cccn4c(C(=O)c5cc(F)c(NC(=O)/C=C/CNC6CCOC6)c(F)c5)ccc34)c(C(F)(F)F)cc2n1C (stereo not drawn) [Example 77, (E)-N-(4-(8-(1,2-dimethyl-6-(trifluoromethyl)-1H-benzo[d]imidazol-5-yl)indolizine-3-carbonyl)-2,6-difluorophenyl)-4-((tetrahydrofuran-3-yl)amino)but-2-enamide]",A (A binding rate of 80% or more is rated “A”)
26,130,"C=Cc1cc(C(=O)c2cc(F)c(NC(=O)/C=C/CN[C@H]3CC[C@H](OC)CC3)c(F)c2)n2cccc(-c3c(C)cc4c(nc(C)n4C)c3Cl)c12 [Example 88, (E)-N-(4-(8(4-chloro-1,2,6-trimethyl-1H-benzo[d]imidazol-5-yl)-1-vinylindolizine-3-carbonyl)-2,6-difluorophenyl)-4-(((1r,4r)-4-methoxycyclohexyl)amino)but-2-enamide]",A (A binding rate of 80% or more is rated “A”)
25,130,CO[C@H]1CC[C@H](NC/C=C/C(=O)Nc2c(F)cc(C(=O)c3cc(CO)c4c(-c5c(C)cc6c(nc(C)n6C)c5Cl)cccn34)cc2F)CC1 [Example 93],A (A binding rate of 80% or more is rated “A”)
